Measurements: patent US20060204993A1, “Methods and compositions for modulating CHK2 pathways and methods for screening for same” (priority 2005, published 2006)
Residues, ends and D or L forms follow the SMILES beside them. *: point of attachment. Cbz = O=C(OCc1ccccc1)*; CH2F = FC*

Experiments:
DLD1-Chk2 cells = test: Apoptosis and mitosis markers (Annexin-V, Pancaspase, phospho-Histone H3) and Z-VAD rescue in tet-induced cells; type: cell-based, human; conditions: DLD1-tet-Chk2#17 cells, +tet six days
Description: FIG. 2A is a graph showing the DNA contents of cells as measured by flow cytometry (upper panel) and the percentages of Annexin-V-positive cells and Pancaspase-positive cells determined by flow cytometric analysis (bottom panels). FIG. 2B is a photograph of fluorescent microscopy showing DLD1-tet-Chk2# 17 cells cultured in the presence or absence of tetracycline following staining with DePsipher Dye (Trevigen) and monitoring the intensity of the monomer ([…]) and aggregates ([…]) of DePsipher. FIG. 2C is a photograph of immunoblots showing DLD1-tet-Chk2 #17 cell lysates following tetracycline treatment. Lysates were prepared and subjected to immunoblotting with the antibodies indicated on the left. FIG. 2D is a series of graphs of flow cytometric analysis showing the DNA content, caspase activity and percentages of DLD1-tet-Chk2#17 cells undergoing apoptosis following treated with Z-VAD- or mock-treated (None) and cultured in the presence (+tet) or absence (−tet) of tetracycline for six days.
To investigate the effect of Chk2 expression on cell cycle progression, the cell cycle profiles of DLD1-Chk2 clones (#17 and #22) were analyzed after Chk2 induction by addition of tetracycline. […]

[1] = test system: DLD1-Chk2 clones (#17 and #22); test: Cell cycle profile (DNA content by flow cytometry) after tetracycline induction of Chk2; type: cell-based, human

SMILES | rescue of Chk2-induced cell death (DLD1-Chk2 cells) | cell population with G2/M DNA content ([1]; uninduced 20%) | cell population with sub-G1 DNA content ([1]; uninduced ~4%) [%] | cell population with S DNA content ([1]; uninduced ~25%) [%] | cell population with G1 DNA content ([1]; uninduced ~52%) [%]
CC(NC(=O)C(NC(=O)OCc1ccccc1)C(C)C)C(=O)NC(CC(=O)O)C(=O)CF (stereo not drawn) [Z-VAD] (Cbz-Val-Ala-Asp-CH2F; configuration not given here) | partially rescued | – | – | – | –
CN(C)[C@@H]1C(O)=C(C(N)=O)C(=O)[C@@]2(O)C(O)=C3C(=O)c4c(O)cccc4[C@@](C)(O)[C@H]3C[C@@H]12 [tetracycline] | – | 30-35% | ~40 | ~9 | ~25
